The subject of one data set is HIV-1Bal.01. The settings on record: for IC50: read-out: HIV-1Bal.01 infection inhibition IC50, HIV-1Bal.01 pseudovirus, HOS.T4.R5 cells.
Another data set has as its target T1, wild type gp120 YU-2 (Human immunodeficiency virus type 1 group M subtype B, UniProt P35961).
T1 construct: into 30 μM of YU2 full-length gp120 at 25° C; made in house; host or cells: HEK 293F
Briefly: Isothermal titration calorimetry binding to gp120. Also noted: species or system HIV-1. On the procedure:
FIGS. 9A-9C illustrate cPT binding and thermodynamic profile of monomeric wild type gp120 YU-2 for cPTs 3 (FIGS. 9A and 9C) and 36 (FIGS. 9B and 9C). Compound solution, 390 μM (for 3) or 200 μM (for 36), was titrated in 8 μL steps into 30 μM of YU2 full-length gp120 at 25° C. in the reaction chamber of a VP-ITC instrument using 1×PBS buffer at pH 7.3. The resulting heat changes were integrated, and the values obtained were fitted to a quadratic binding equation (one site binding model).
cPT dissociation constants were determined at 25° C. on a VP-Isothermal Titration calorimeter (VP-ITC) system (MicroCal™, GE Healthcare, Freiburg). 200 μM (for 36) or 390 μM (for 3) compound solutions were in 8 μL steps titrated into 30 μM of wild type gp120 YU-2 at 25° C. using 1×PBS buffer at pH 7.3. The resulting heat change upon injection was integrated over a time range of 300 sec, and the obtained values were fitted to a standard single-site binding model using ORIGIN®.

The target of data set [1] is T2, HIV-1YU-2 gp120 binding to sCD4 (Human immunodeficiency virus type 1 group M subtype B, UniProt P35961).
T2 construct: The purified DNA encoding gp120 YU-2 was transfected into HEK 293F cells; made in house; host or cells: HEK 293F
Briefly: SPR competition assay: inhibition of gp120 binding to CD4. The settings on record: for inhibition of gp120 binding to CD4 (in words): SPR competition. The protocol: (§1) SPR experiments are performed on a Biacore 3000 optical biosensor (GE Healthcare). All experiments are carried out at 25° C. using standard PBS buffer pH=7.4 with 0.005% surfactant Tween and 2% DMSO.
(§2) Three flow cells in the CM5 chip were used for amine coupling of different ligands through standard 1-ethyl-3-(3-(dimethylamino) propyl) carbodiimide (EDC)/N-hydroxysuccinamide (NHS) chemistry. Flow cell 1 containing 2000 RUs of immobilized antibody 2B6R (α-human IL5R) served as a negative control for flow cells 2 and 3 each of which contained 2000 RUs of immobilized CD4 and 17b respectively.
(§3) For kinetic analyses, typically 2000-3000 RUs of protein reagents are immobilized on SPR chips, and analytes are passed over the surface at 50-100 μL/min. Surface regeneration is achieved by a 5 μL injection of 10 mM HCl solution at 100 μL/min. […] Regeneration of the surface is achieved by a single 10 second pulse of 1.3 M NaCl/35 mM NaOH and single 5-second pulse of 10 mM glycine, pH 1.5, for sCD4 and mAb 17b, respectively.
(§4) Data analysis of SPR competition data was performed using BIAevaluation v4.1.1 software (GE). To correct for nonspecific binding, response signals from buffer injection and from control flow cell were subtracted from all sensorgrams. Inhibition potencies were determined by calculating the inhibitor concentration required for 50% inhibition of maximal binding (IC50). The inhibition curve was plotted and then fitted using the four-parameter equation as shown below using OriginPro 8 graphing software.
(§5) The cyclic peptides of the invention are tested against HIV-1 gp120 by SPR competition assays. A mixture of the cyclic peptide/gp120 solutions is passed over SPR chip immobilized with CD4 and 17b separately. The competition assay evaluates the ability of each peptide to inhibit the binding between gp120 and both soluble CD4 and 17b antibody, a surrogate for co-receptor.

Data set [2] has as its target T3, HIV-1YU-2 gp120 binding to mAb 17b (Human immunodeficiency virus type 1 group M subtype B, UniProt P35961).
T3 construct: The purified DNA encoding gp120 YU-2 was transfected into HEK 293F cells; made in house; host or cells: HEK 293F
In words: SPR competition assay: inhibition of gp120 binding to 17b (co-receptor surrogate). To be noted: for inhibition of gp120 binding to 17b (in words): SPR competition. The protocol:
as §1, §2, §3, §4, §5

For the next data set, the system named is HOS.T4.R5 cells. The protocol:
cPTs 36 and 37 were tested for cytotoxicity in vitro with HOS.T4.R5 cells. The latter were seeded at […] per well and incubated with peptides as described elsewhere herein for the infection inhibition assays. Cell viability was determined using the tetrazolium salt premix reagent WST-1 from TaKaRa Bio, Inc., by following the manufacturer's protocol. The formazan product was measured 24 h post-exposure using a microplate reader (Molecular Devices) at an absorbance wavelength of 450 nm.

The conditions of data set [3]: PBS buffer or PBS buffer with 5% DMSO. The source says:
Each cPT was synthesized starting from the corresponding amino acids: Asn for 34 and Dab for 35. Designation of “poor” and “good” solubility was based on behavior of cPT in PBS buffer or PBS buffer with 5% DMSO.

The subject of data set [4] is viruses pseudotyped with VSV-G. The settings on record: background; cited from earlier work.
Another data set concerns tissue explants model. The settings on record: concentrations up to 100 μM; cited from earlier work.
The next data set has as its target monomeric gp120 (Human immunodeficiency virus type 1 group M subtype B, UniProt P35961). To be noted: background; cited from earlier work.
The test system of data set [5] is subtype A, B and C isolates. To be noted: read-out: IC50 range, neutralizes viral infection by subtype A; cited from earlier work.

Several values for one entry are separate records, joined by “and”; a condition that tells them apart may be missing. Equal values may be shown once. Read-outs that look alike come from different tables or passages of the source. *1 amine or outer side, *2 acyl side, *3 side chain or, on linkers, in order; H or OH if unused. Where a SMILES comes first, the peptide text is derived from it. Bridges are numbered along the chain shown (N, C = ends). [ ]: non-standard residue; d: D form. X1 = O=C([C@@H]1C[C@H](n2cc(-c3ccc(-c4cccs4)cc3)nn2)CN1[*:1])[*:2]; X9 = CCc1ccc(-c2cn([C@H]3C[C@@H](C(=O)[*:2])N([*:1])C3)nn2)cc1; Bta = N[C@@H](Cc1csc2ccccc12)C(=O)O; Chg = N[C@H](C(=O)O)C1CCCCC1; Dab = NCC[C@H](N)C(=O)O Some results are limits rather than exact numbers.

The IC50 is the concentration at which inhibition is half-maximal. By Kd is commonly meant the concentration at which binding is half-saturated. For `CC[C@H](C)[C@@H]1NC(=O)[C@H](CC(N)=O)NC(=O)[C@@H](N)CC(=O)NCCCC[C@@H](C(N)=O)NC(=O)[C@H](Cc2c[nH]c3ccccc23)NC(=O)[C@@H]2C[C@H](n3cc(-c4ccc(-c5cccs5)cc4)nn3)CN2C1=O` [cPT 36, (3S,6S,14S,17S,20S,24S,25aS)-3-((1H-indol-3-yl)methyl)-14-amino-17-(2-amino-2-oxoethyl)-20-((S)-sec-butyl)-1,4,12,15,18,21-hexaoxo-24-(4-(4-(thiophen-2-yl)phenyl)-1H-1,2,3-triazol-1-yl)tetracosahydro-1H-pyrrolo[2,1-f][1,4,7,10,13,18]hexaazacyclotricosine-6-carboxamide] (H-DNI[X1]WK-NH2; lactam 1-6), in the data set on HIV-1Bal.01 (infection inhibition), the “fold improvement in potency compared to 23” value is listed as > 2 fold. In addition, the IC50 in the data set on HIV-1Bal.01 is 105 nM and ~100 nM; with HIV-1Bal.01 (listed as 29N-2), ~105 nM; in data set [1], ~66 nM; in data set [2], ~56 nM. The molecule also had a Kd at wild type gp120 YU-2 of 350 nM. The ΔH on wild type gp120 YU-2 (ITC, 25° C.) is -4.07 ± 0.06 kcal/mol. The same molecule showed a ΔS on wild type gp120 YU-2 (ITC, 25° C.) of 0.0159 kcal/mol. The “−TΔS” value at wild type gp120 YU-2 (ITC, 25° C.) is -4.74 kcal/mol. Besides, the “inhibition of gp120 binding to CD4 (in words)” value in data set [1] is “inhibited gp120 binding to both CD4 and 17b”; in [1] (listed as 29N-2), “dual inhibitors of both CD4 and 17b binding to gp120”. For the same molecule, the “inhibition of gp120 binding to 17b (in words)” value in [2] was “inhibited gp120 binding to both CD4 and 17b”; in data set [2] (listed as 29N-2), “dual inhibitors of both CD4 and 17b binding to gp120”. For the same molecule, in the data set with HOS.T4.R5 cells (estimated from the IC50 and the CC50 values), the “selectivity index (SI)” value is recorded as > 1000. For the same molecule, the “cytotoxicity (cell viability)” value with HOS.T4.R5 cells (highest concentrations used 100 μM, 24 h post-exposure) is recorded as “no cytotoxicity was detected”.

Turning to `CCc1ccc(-c2cn([C@H]3C[C@H]4C(=O)N[C@@H](Cc5csc6ccccc56)C(=O)N[C@H](C(N)=O)CCCCNC(=O)C[C@H](N)C(=O)N[C@@H](CCN)C(=O)N[C@@H](C5CCCCC5)C(=O)N4C3)nn2)cc1` [compound 35] (H-D[Dab][Chg][X9][Bta]K-NH2; lactam 1-6), the solubility entry in [3] is given as “better solubility”.

Take “(S)-4-((S)-2-((S)-2-((2S,4S)-1-(L-arginyl-L-isoleucyl-L-asparaginyl-L-asparaginyl-L-alloisoleucyl)-4-(4-ferrocenyl-1H-1,2,3-triazol-1-yl)pyrrolidine-2-carboxamido)-3-(1H-indol-3-yl) propanamido)-3-hydroxypropanamido)-5-(((S)-1-(((S)-1-(((S)-1-amino-4-(methylthio)-1-oxobutan-2-yl)amino)-4-(methylthio)-1-oxobutan-2-yl)amino)-1-oxopropan-2-yl)amino)-5-oxopentanoic acid [HNG156]”: the “neutralization of VSV-G pseudotyped viruses” value in data set [4] is listed as “not viruses pseudotyped with VSV-G”. In the data set on tissue explants model, the toxicity result is given as “no detectable toxicity”. At monomeric gp120, the Kd was 7 nM. Besides, in data set [5], the IC50 was 80 to 62500 nM.

For the molecule `CCc1ccc(-c2cn([C@H]3C[C@H]4C(=O)N[C@@H](Cc5csc6ccccc56)C(=O)N[C@H](C(N)=O)CCCCNC(=O)C[C@H](N)C(=O)N[C@@H](CC(N)=O)C(=O)N[C@@H](C5CCCCC5)C(=O)N4C3)nn2)cc1` [compound 34] (H-DN[Chg][X9][Bta]K-NH2; lactam 1-6), the solubility result in data set [3] is “poor solubility”.

Source of the values: patent US12421279B2, “Cyclic peptide antiviral agents and methods using same” (priority 2016, dated 2025).
